Experiment: Accelerated stability of calcium (6S) N5-methyl-tetrahydrofolate products (HPLC related substances and assay)
Type: physicochemical
Details: 25° C. and 40% relative humidity
Description: Determination of related substances of calcium (6S)—N^5-methyl-(5,6,7,8)-tetrahydrofolate by HPLC method
25±3 mg of (6S)-5-methyl-tetrahydrofolic acid calcium salt calculated on dry base were placed in a 50 ml volumetric flask and added with 320 μl of acid ascorbic solution and water until the final volume was reached. The solution was transferred in a HPLC vial and the sample injected immediately.
Analysis: 10 μl of the sample solution were Injected, the chromatogram recorded (analytical wavelength 280±16 nm) and the peak response measured.
the liquid chromatograph was equipped with a Hypersil ODS column (length 250 mm, ID 4 mm, particle size 5 μm). The column was coupled with a diode array detector for the detection wavelength of 280±16 nm
Determination of assay by HPLC of calcium (6RS) and (6S) N^5-methyl-tetrahydrofolate
75-85 mg of sample were dissolved in 200 ml water within a 250 ml volumetric flask. 1 ml of the ascorbic acid solution was added and dilute to 250 ml with water. A total of three sample solutions were prepared.
The HPLC system was verified and calibrated by injecting the standard solutions. Once each of the three prepared sample solutions were injected followed by one standard solution as calibration control.
The liquid chromatograph was equipped with an analytical column such ACE 5 C18, 250 mm×2.1 mm, with particle size 5 μm.
acetonitrile 12%, phosphate buffer pH 6.5 80%, methanol+2-mercaptoethanol 8%.
column temperature: 25° C., isocratic mode, flow rate: 0.41 ml/min, injection volume: 5 μl, run time: 13.5 min, analytical wavelength: 290 nm.
The stability of the complexes according to the present invention prepared by spray-drying or lyophilization as described in examples 5 and 7 was tested in comparison with the stability of (6S)—N^5-methyl-tetrahydrofolate calcium salt alone. Preparations obtained through different technologies, such as evaporation of the solvent from the solution, as reported in examples 2, 3 and 4, were also assessed for stability. Accelarated stability experiments at 25° C. and 40% relative humidity were carried out.

## CN1c2c(nc(N)[nH]c2=O)NC[C@@H]1CNc1ccc(C(=O)N[C@@H](CCC(=O)[O-])C(=O)[O-])cc1.[Ca+2] [Product 5MeTHF, (6S)—N^5-methyl-(5,6,7,8)-tetrahydrofolate calcium salt]
4 weeks
  Decrease of 5MeTHF % content: −2.70%
  Increase of D2 % content: 1.30%
12 weeks
  Decrease of 5MeTHF % content: −2.80%
  Increase of D2 % content: 1.40%
24 weeks
  Decrease of 5MeTHF % content: −5.6%
  Increase of D2 % content: 2.3%

From patent US9163025B2, “Stable complexes of an alkaline earth metal salt of N5-methyl-tetrahydrofolic acid and a polyol” (CERBIOS-PHARMA SA, priority 2013, dated 2015)
